The results in this text go back to ChEMBL document CHEMBL5154807, “Design and development of photoswitchable DFG-Out RET kinase inhibitors” (Eur J Med Chem, 2022).

The IC50 is the concentration that inhibits the measured activity by half. A high value points to weaker potency. Broadly, the half-life is how long it takes for the measured level to halve.

In data set [1] the target is T1, Proto-oncogene tyrosine-protein kinase receptor Ret (Homo sapiens, UniProt P07949). Kind of data set: Inhibition of human RET kinase using IGF1Rtide as substrate incubated for 40 mins and measured by ADP-Glo assay.
T1 sequence (P07949 whole entry): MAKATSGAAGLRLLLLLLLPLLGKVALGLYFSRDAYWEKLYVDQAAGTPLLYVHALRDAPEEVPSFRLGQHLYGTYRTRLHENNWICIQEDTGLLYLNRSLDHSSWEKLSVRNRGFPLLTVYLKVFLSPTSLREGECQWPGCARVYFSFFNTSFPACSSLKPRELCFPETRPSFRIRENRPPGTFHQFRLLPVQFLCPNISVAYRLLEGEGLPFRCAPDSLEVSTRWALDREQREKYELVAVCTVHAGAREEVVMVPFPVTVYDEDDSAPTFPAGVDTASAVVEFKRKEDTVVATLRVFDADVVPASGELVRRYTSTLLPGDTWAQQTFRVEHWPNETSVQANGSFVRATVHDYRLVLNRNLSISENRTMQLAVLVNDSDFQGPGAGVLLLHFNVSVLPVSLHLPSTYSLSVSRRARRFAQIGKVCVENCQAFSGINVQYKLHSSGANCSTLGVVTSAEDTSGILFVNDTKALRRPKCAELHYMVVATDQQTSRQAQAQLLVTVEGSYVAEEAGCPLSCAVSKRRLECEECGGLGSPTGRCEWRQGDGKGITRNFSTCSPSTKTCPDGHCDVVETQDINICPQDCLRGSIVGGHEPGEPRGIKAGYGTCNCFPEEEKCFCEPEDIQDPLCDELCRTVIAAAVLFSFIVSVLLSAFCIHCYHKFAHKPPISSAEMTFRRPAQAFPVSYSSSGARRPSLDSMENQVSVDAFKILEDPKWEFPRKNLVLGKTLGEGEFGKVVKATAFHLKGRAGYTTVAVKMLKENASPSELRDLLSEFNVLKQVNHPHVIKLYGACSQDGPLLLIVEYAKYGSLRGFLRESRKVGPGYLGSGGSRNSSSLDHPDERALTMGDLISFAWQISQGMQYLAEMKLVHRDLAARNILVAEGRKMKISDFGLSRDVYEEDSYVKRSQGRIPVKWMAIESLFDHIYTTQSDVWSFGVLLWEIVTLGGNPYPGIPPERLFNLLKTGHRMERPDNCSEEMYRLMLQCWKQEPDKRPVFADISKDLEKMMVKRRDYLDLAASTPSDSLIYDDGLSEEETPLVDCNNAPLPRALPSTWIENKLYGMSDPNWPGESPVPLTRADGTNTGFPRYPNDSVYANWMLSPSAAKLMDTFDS
Data set [2] in a line: Thermal stability of compound in DMSO assessed as half-life. The format is physicochemical.
A short description of data set [3]: Thermal stability of compound in water assessed as half-life. Type of data set: physicochemical.
Data set [4] is described as follows: Drug degradation in 10 mM GSH after 20 hrs measured by LC-MS analysis. Type of data set: ADME. Particulars: 10000 µM.
Data set [5] deals with T1, Proto-oncogene tyrosine-protein kinase receptor Ret. Put plainly: Inhibition of full-length RET kinase expressed in human HEK293 cells and measured by NanoBRET assay. The format is cell-based. (In general: BRET reads energy transfer from a luciferase to a nearby fluorophore.)

Take `CCCc1cccc2cc(/C=C\c3cccc(C(=O)Nc4ccc(CN5CCN(C)CC5)c(C(F)(F)F)c4)c3)cnc12`: the IC50 in data set [1] is > 500000 nM.

For the compound `CN1CCN(Cc2ccc(NC(=O)c3ccc(F)c(/N=N/c4cnc5ccccc5c4)c3F)cc2C(F)(F)F)CC1`, in data set [1], the IC50 came to 11 nM. Besides, the half-life in data set [2] was 32.5 days; in data set [3] it was 1.58 days. Also, in data set [4], the Stability entry is “Stable”.

In turn, `CN1CCN(Cc2ccc(NC(=O)c3cccc(/C=C/c4cnc5ccccc5c4)c3)cc2C(F)(F)F)CC1` came in with an IC50 in data set [1] of 7.8 nM.

Consider `COc1c(/C=C/c2cccc(C(=O)Nc3ccc(CN4CCN(C)CC4)c(C(F)(F)F)c3)c2)cnc2ccccc12`, for which it took 12.4 nM to reach half-maximal inhibition in data set [1] (IC50).

For the compound `CN1CCN(Cc2ccc(NC(=O)c3cccc(/C=C\c4cnc5ccccc5c4Nc4ccccc4)c3)cc2C(F)(F)F)CC1`, in data set [1], the IC50 was 49000 nM.

Turning to `CN1CCN(Cc2ccc(NC(=O)c3cccc(/N=N/c4cnc5ccccc5c4)c3)cc2C(F)(F)F)CC1`, in data set [1], the IC50 was 9.5 nM. Moreover, the half-life is 8.67 days in data set [2] and 9.04 days in data set [3]. Also, the Stability result in data set [4] is “Stable”.

As for `CN1CCN(Cc2ccc(NC(=O)c3ccc(F)c(/N=N\c4cnc5ccccc5c4)c3F)cc2C(F)(F)F)CC1`, half-maximal inhibition in data set [1] (IC50) was put at 17 nM. For the same compound, in data set [3], the half-life is 1.58 days.

`CN1CCN(Cc2ccc(NC(=O)c3cccc(/C=C/c4cnc5ccccc5c4N(C)C)c3)cc2C(F)(F)F)CC1`: inhibition in data set [1] was half-maximal at 98 nM (IC50).

Take `COc1c(/N=N\c2cccc(C(=O)Nc3ccc(CN4CCN(C)CC4)c(C(F)(F)F)c3)c2)cnc2ccccc12`: the concentration for half-maximal inhibition (IC50) in data set [1] worked out at 363 nM; in data set [5] it was 3890 nM.

`CN1CCN(Cc2ccc(NC(=O)c3cccc(/C=C\c4cnc5ccccc5c4N(C)C)c3)cc2C(F)(F)F)CC1` had a concentration for half-maximal inhibition (IC50) in data set [1] of 2400 nM.

Consider `CN1CCN(Cc2ccc(NC(=O)c3cccc(/C=C/c4cnc5ccccc5c4Nc4ccccc4)c3)cc2C(F)(F)F)CC1`, for which, in data set [1], the half-maximal inhibitory concentration (IC50) was found to be 2300 nM.

`COc1c(/C=C\c2cccc(C(=O)Nc3ccc(CN4CCN(C)CC4)c(C(F)(F)F)c3)c2)cnc2ccccc12`: the IC50 in data set [1] amounted to 1800 nM.

`CN1CCN(Cc2ccc(NC(=O)c3cccc(/C=C\c4cnc5ccccc5c4N4CCCC4)c3)cc2C(F)(F)F)CC1` gave an IC50 in data set [1] of 2200 nM.

`CC(C)n1nc(-c2ccc(NC(=O)Nc3cc(C(F)(F)F)ccc3F)cc2)c2c(N)ncnc21` showed an IC50 in data set [1] of 1.3 nM.

With `Cc1cccc2cc(/C=C\c3cccc(C(=O)Nc4ccc(CN5CCN(C)CC5)c(C(F)(F)F)c4)c3)cnc12`, the half-maximal inhibitory concentration (IC50) in data set [1] was determined as 12600 nM.

As for `CC(C)c1cccc2cc(/C=C\c3cccc(C(=O)Nc4ccc(CN5CCN(C)CC5)c(C(F)(F)F)c4)c3)cnc12`, in data set [1], the IC50 was > 500000 nM.

The compound `CN1CCN(Cc2ccc(NC(=O)c3cccc(/N=N\c4cnc5ccccc5c4)c3)cc2C(F)(F)F)CC1` showed a half-maximal inhibitory concentration (IC50) in data set [1] of 15 nM.

In data set [1], `CCc1cccc2cc(/C=C\c3cccc(C(=O)Nc4ccc(CN5CCN(C)CC5)c(C(F)(F)F)c4)c3)cnc12` came in with an IC50 of 25000 nM.

In data set [1], `CC(C)c1cccc2cc(/C=C/c3cccc(C(=O)Nc4ccc(CN5CCN(C)CC5)c(C(F)(F)F)c4)c3)cnc12` had a half-maximal inhibitory concentration (IC50) of 9800 nM.

On to `COc1c(/N=N/c2cccc(C(=O)Nc3ccc(CN4CCN(C)CC4)c(C(F)(F)F)c3)c2)cnc2ccccc12`, for which the results for the IC50 in data set [1] and in data set [5] were 24 nM and 920 nM, respectively. The half-life in data set [2] was 12.6 days; in data set [3] it was 16.8 days.

Compound `Cc1cccc2cc(/C=C/c3cccc(C(=O)Nc4ccc(CN5CCN(C)CC5)c(C(F)(F)F)c4)c3)cnc12` returned a concentration for half-maximal inhibition (IC50) in data set [1] of 257 nM.

For `CN1CCN(Cc2ccc(NC(=O)c3cccc(/C=C/c4cnc5ccccc5c4N4CCCC4)c3)cc2C(F)(F)F)CC1`, the IC50 in data set [1] was 66 nM.

For `CCc1cccc2cc(/C=C/c3cccc(C(=O)Nc4ccc(CN5CCN(C)CC5)c(C(F)(F)F)c4)c3)cnc12`, the 50% inhibitory concentration (IC50) in data set [1] came to 1700 nM.

In turn, `CN1CCN(Cc2ccc(NC(=O)c3cccc(/N=N/c4cnc5[nH]ccc5c4)c3)cc2C(F)(F)F)CC1` yielded a 50% inhibitory concentration (IC50) in data set [1] of 3 nM. The half-life in data set [2] was 15.7 days; in data set [3] it was 26.2 days. Further, in data set [4], the Stability result was “Stable”.

The compound `CN1CCN(Cc2ccc(NC(=O)c3cccc(/C=C\c4cnc5ccccc5c4)c3)cc2C(F)(F)F)CC1` displayed a half-maximal inhibitory concentration (IC50) in data set [1] of 900 nM.

Regarding `CCCc1cccc2cc(/C=C/c3cccc(C(=O)Nc4ccc(CN5CCN(C)CC5)c(C(F)(F)F)c4)c3)cnc12`, in data set [1], the concentration for half-maximal inhibition (IC50) stood at 5600 nM.
